Data: US5462926A (Biomeasure, Inc., priority 1993, dated 1995)
Where a SMILES comes first, the peptide text is derived from it. Bridges are numbered along the chain shown (N, C = ends). [ ]: non-standard residue; d: D form. 2Nal = N[C@@H](Cc1ccc2ccccc2c1)C(=O)O; d2Nal = N[C@H](Cc1ccc2ccccc2c1)C(=O)O

Columns and labels:
[1] = molecular target: T1, mu opioid receptors (Rattus norvegicus, UniProt P33535); test: Mu opioid membrane assay, [3H]DAGO, rat forebrain membranes; format: binding; details: rat forebrain membranes; read-out: affinity, inhibition of [3H]DAGO binding to mu opioid receptors
T1 construct: rat forebrain (TRH, mu and delta opioid membrane assays); from tissue; host or cells: rat forebrain membranes
T1 sequence (P33535 whole entry): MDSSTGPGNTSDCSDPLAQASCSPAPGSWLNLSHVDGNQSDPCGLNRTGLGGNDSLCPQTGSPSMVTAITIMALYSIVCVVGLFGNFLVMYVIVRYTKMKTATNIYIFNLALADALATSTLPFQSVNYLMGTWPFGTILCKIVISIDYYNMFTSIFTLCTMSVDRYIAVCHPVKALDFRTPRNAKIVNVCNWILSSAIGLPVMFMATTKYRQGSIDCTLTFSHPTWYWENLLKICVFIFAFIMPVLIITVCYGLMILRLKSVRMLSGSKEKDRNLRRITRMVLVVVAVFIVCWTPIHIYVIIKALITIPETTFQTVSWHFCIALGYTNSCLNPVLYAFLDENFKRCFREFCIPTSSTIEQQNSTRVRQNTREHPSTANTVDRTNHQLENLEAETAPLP

[2] = molecular target: T2, somatostatin receptors (Rattus norvegicus, UniProt P30680); test: Somatostatin membrane receptor assay, 125I-[Tyr11]SS-14, AR 42J cell membranes; format: binding; details: Cheng method; table prints no unit (b360 gives nM for a Table 4 value); read-out: affinity, 125I-[Tyr11]SS-14, AR 42J Cell Membranes (somatostatin receptors)
T2 construct: endogenous in cells; host or cells: rat AR 42J pancreatic acinar tumor cell membranes
T2 sequence (P30680 whole entry): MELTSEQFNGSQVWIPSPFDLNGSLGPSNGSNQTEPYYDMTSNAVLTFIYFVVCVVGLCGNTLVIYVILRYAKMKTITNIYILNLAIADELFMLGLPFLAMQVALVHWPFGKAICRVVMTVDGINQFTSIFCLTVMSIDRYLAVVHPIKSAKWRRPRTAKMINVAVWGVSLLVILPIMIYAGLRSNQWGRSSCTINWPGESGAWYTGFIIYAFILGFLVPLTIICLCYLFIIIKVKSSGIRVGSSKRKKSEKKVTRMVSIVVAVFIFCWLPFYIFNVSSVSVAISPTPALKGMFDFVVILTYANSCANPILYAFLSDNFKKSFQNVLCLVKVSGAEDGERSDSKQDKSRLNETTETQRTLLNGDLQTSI

[3] = system: endothelin-1-stimulated increases in [3H]IP; test: Endothelin-1-stimulated [3H]IP in C-6 glioblastoma cells; format: cell-based, rat
Protocol: (§1) Total phosphoinositides in C-6 cells and in NMB-R transfected cells were determined as described previously, with minor modifications [Benya, R. V. et al. Mol. Pharmacol. 42:1058 (1992); and Wang, L-H. et al. Biochem. Jo 286:641 (1992)]. Cells were grown to confluence in 24-well plates and then loaded with 100 μCi/ml myo-[2-^3 H]inositol in Dulbecco's modified essential medium with 2% fetal bovine serum at 37° C. for 48 hrs. Cells were washed and incubated in phosphoinositide buffer (standard buffer additionally containing 10 mM LiCl, 20 mM HEPES, 2 mM CaCl2, 2% BSA, and 1.2 mM MgSO4) for 15 min and then for 60 min at 37° C. with agonists at various concentrations or with 3 nM NMB (a half-maximal effective concentration) and possible antagonists at different concentrations. Reactions were halted using ice-cold 1% HCl in methanol, and the inositol phosphates (IP) were isolated as described previously [Bologna, M. et al. Cancer 63:1714 (1989); and Endo, T. et al. J. Endocrinolo 131:313 (1991)]. Briefly, after loading of the anion exchange column, free [^3 H]glycerophosphorylinositol was removed by washing with 5 mM disodium tetraborate in 60 mM sodium formate. Total [^3 H]inositol phosphates were then eluted using 100 mM formic acid in 1.0M ammonium formate as described previously [Benya, R. V. et al. Mol. Pharmacol. 42:1058 (1992); and Wang, L-H. et al. Biochem. J. 286:641 (1992 )].
(§2) without SSoctapeptide analog added. C6 glioblastoma cells (50,000
(§3) cells/well) were incubated with myo[2^3 H]inositol for two days,
(§4) washed and then incubated with or without the indicated peptides for 60
(§5) minutes at 37° C. in phosphoinositide buffer containing 10 mM LiCl
(§6) as described in METHODS. [^3 H]IP was measured using Dowex AG1X8 anio

[4] = molecular target: GRP receptor (Rattus norvegicus, UniProt P52500); test: GRP membrane receptor assay, 125I-[Tyr4]Bn, AR 42J cell membranes; format: binding; design: endogenous in cells; host or cells: rat AR 42J pancreatic acinar tumor cell membranes; details: read-out: affinity, 125I-[Tyr4]Bn, AR 42J Cell Membranes (GRP receptors); Cheng method; unit inferred
Sequence of GRP receptor (P52500 whole entry): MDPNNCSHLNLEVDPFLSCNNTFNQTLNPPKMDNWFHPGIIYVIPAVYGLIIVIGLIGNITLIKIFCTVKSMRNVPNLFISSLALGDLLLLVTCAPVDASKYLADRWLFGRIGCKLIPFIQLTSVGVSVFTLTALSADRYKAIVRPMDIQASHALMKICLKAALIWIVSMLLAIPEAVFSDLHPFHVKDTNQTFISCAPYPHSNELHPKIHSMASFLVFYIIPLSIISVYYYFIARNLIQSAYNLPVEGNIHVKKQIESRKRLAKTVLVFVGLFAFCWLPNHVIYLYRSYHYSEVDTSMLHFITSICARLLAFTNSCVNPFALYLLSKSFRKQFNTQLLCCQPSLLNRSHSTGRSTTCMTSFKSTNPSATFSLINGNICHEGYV

[5] = system: TRH receptor; test: TRH membrane assay, rat forebrain; format: binding; details: 1 μM
[6] = molecular target: T3, benzodiazepine-peripheral receptor (Rattus norvegicus, UniProt P16257); test: Peripheral benzodiazepine membrane receptor assay, rat cerebral cortex; format: binding; details: 1 μM
T3 construct: from tissue; host or cells: rat cerebral cortex membranes
T3 sequence (P16257 whole entry): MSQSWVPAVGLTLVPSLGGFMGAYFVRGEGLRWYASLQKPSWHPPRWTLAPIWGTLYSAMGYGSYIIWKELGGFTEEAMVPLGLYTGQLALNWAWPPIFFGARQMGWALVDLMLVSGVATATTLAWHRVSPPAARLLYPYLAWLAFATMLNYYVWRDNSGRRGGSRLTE

[7] = system: bradykinin1; test: Bradykinin membrane receptor assay, [3H]bradykinin; format: binding; details: 1 μM
[8] = system: GRP receptors on rat pancreatic acini; test: Binding of 125I-[Tyr4]bombesin to pancreatic acini; details: NMB-R transfected cells vs GRP-R on rat pancreatic acini
Text: Nonsaturable binding was<10% of total binding in all experiments.

[9] = molecular target: T4, endothelinA (Rattus norvegicus, UniProt P26684); test: EtA membrane receptor assay, A10 smooth muscle cells; format: binding; details: 1 μM
T4 construct: A10 smooth muscle cells (EtA membrane receptor assay); endogenous in cells; host or cells: A10 smooth muscle cells (membranes)
T4 sequence (P26684 21-426): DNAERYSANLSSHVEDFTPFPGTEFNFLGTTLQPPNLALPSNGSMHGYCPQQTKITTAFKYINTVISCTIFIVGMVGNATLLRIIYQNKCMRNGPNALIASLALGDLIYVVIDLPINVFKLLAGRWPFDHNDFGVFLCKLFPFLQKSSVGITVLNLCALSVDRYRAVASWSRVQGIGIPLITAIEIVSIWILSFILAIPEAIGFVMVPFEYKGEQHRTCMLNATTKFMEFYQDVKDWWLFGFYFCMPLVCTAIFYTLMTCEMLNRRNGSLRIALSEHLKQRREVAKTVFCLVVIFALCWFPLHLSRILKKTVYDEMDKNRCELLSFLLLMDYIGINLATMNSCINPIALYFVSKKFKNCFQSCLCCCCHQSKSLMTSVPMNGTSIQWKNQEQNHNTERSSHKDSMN

[10] = molecular target: T5, sigma opioid receptor (Cavia porcellus, UniProt Q60492); test: Sigma opioid membrane receptor assay, guinea pig cerebral; format: binding; details: 1 μM
T5 construct: guinea pig cerebral (N1, histamine H1, and sigma opioid membrane receptor assays); from tissue; host or cells: guinea pig cerebral membranes
T5 sequence (Q60492 whole entry): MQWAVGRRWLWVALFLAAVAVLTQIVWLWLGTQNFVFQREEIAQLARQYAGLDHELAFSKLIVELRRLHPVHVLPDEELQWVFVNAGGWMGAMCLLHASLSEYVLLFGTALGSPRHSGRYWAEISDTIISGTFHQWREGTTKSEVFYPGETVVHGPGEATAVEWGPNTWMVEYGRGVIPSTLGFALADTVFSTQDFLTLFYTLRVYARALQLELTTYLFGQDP

[11] = molecular target: T6, dopamine2 receptor (Rattus norvegicus, UniProt P61169); test: Dopamine2 membrane receptor assay, rat corpus striatum; format: binding; details: 1 μM
T6 construct: rat corpus striatum (dopamine1 and dopamine2 membrane receptor assays); from tissue; host or cells: rat corpus striatum membranes
T6 sequence (P61169 whole entry): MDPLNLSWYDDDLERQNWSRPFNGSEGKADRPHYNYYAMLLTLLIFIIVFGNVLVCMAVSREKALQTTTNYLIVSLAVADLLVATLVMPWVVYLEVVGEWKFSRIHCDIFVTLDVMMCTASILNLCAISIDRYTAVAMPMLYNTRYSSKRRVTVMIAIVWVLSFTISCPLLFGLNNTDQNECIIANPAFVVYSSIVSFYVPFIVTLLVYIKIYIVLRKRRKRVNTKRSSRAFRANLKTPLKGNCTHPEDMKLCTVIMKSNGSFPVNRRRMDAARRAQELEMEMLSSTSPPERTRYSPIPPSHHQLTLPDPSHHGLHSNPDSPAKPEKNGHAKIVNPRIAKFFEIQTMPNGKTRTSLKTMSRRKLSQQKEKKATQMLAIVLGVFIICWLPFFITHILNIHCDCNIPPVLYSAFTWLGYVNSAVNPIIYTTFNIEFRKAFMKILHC

[12] = molecular target: T7, NMB receptor (Rattus norvegicus, UniProt P24053); test: [3H]inositol phosphates in NMB-R transfected cells (alone or NMB-stimulated); format: cell-based; design: a full length NMB-preferring bombesin receptor clone generated from rat esophagus; expressed in transfected cells; details: NMB-R transfected cells
T7 sequence (P24053 1-390): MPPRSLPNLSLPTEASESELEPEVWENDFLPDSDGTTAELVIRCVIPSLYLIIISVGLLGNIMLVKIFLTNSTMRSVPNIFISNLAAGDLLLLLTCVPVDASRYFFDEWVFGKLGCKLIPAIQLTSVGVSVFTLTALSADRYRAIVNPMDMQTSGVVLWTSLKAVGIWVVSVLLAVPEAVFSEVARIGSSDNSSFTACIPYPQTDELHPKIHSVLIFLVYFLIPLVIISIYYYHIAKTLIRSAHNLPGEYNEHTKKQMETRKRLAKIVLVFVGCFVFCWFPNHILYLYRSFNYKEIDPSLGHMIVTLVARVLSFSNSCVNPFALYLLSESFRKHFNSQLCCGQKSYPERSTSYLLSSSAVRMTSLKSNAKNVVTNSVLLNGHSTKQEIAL
Outline: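 BALB 3T3 cells stably expressing rat NMB receptor, labelled 48 h at 37 °C with 100 μCi/ml myo-[3H]inositol, preincubated 15 min in buffer with 10 mM LiCl, then exposed 60 min at 37 °C to agonists or to 3 nM NMB plus antagonists. Total [3H]inositol phosphates isolated by anion-exchange chromatography.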

[13] = molecular target: T7, NMB receptor; test: [3H]IP in C-6 glioblastoma cells (alone or NMB-stimulated); format: cell-based; design: a full length NMB-preferring bombesin receptor clone generated from rat esophagus; expressed in transfected cells
Protocol: as §1, §2, §3, §4, §5, §6

## CC(C)[C@@H]1NC(=O)[C@H](CCCCN)NC(=O)[C@@H](Cc2c[nH]c3ccccc23)NC(=O)[C@H](Cc2ccc(O)cc2)NC(=O)[C@@H](NC(=O)[C@H](N)Cc2ccc3ccccc3c2)CSSC[C@@H](C(=O)N[C@@H](Cc2ccc3ccccc3c2)C(N)=O)NC1=O [Analog #1, H2 -D-Nal-Cys-Tyr-D-Trp-Lys-Val-Cys-Nal-NH2] (H-[d2Nal]CY[dW]KVC[2Nal]-NH2; disulfide 2-7)
[1]
  Ki: 430 ± 130 nM
[2]
  Ki: 0.8 ± 0.5 nM
[3]; analog 10 μM, ET-1 alone 11.0 ± 2.1
  [3H]IP with ET-1 (0.1 nM): 10.9 ± 1.8 dpm × 10^3
[3]; listed as Cycle SS-octa
  effect on endothelin-1-stimulated increases in [3H]IP in C-6 cells: did not inhibit
[3]; listed as cyclo SS octa
  effect on endothelin-1-stimulated increases in [3H]IP in C-6 cells: no effect
[4]
  Ki: 2870 ± 520 nM
[5]
  inhibition of binding to TRH receptors: did not inhibit binding
[6]
  inhibition of binding to benzodiazepine-peripheral receptors: did not inhibit binding
[7]
  inhibition of binding to bradykinin1 receptors: did not inhibit binding
[8]
  fold greater affinity for NMB than GRP receptors: 84 fold
[8]; listed as cyclo SS-octa
  fold greater affinity for NMB than GRP receptors: 100 fold
[9]
  inhibition of binding to endothelinA receptors: did not inhibit binding
[10]
  inhibition of binding to sigma opioid receptors: did not inhibit binding
[11]
  inhibition of binding to dopamine2 receptors: did not inhibit binding
[12]
  concentration causing detectible inhibition of NMB-stimulated [3H]IP: 0.3 µM
[12]; 3 nM NMB, read-out: IC50 NMB-stimulated [3H]IP, NMB Receptor, Transfected Cells
  IC50: 895 ± 98 nM
[12]; 10 μM, 3 nM NMB
  effect at 10 μM on NMB-stimulated increase in [3H]IP: completely inhibited
[12]; analog 10 μM alone, control 13 ± 3
  [3H]IP, analog Alone (10 μM): 12 ± 2 dym × 10^3
[12]; analog 10 μM plus NMB 3 nM, NMB without analog 186 ± 58
  [3H]IP, analog Plus NMB (3 nM): 8 ± 4 dym × 10^3
[12]; not significantly different from unity
  slope of Schild regression: 1.1(+0.2)
[13]
  effect on NMB-stimulated increases in [3H]IP in C-6 cells: inhibited
[13]; analog 10 μM, 60 min 37° C., control 7.2 ± 1.0
  [3H]IP, no peptide added: 7.4 ± 1.3 dpm × 10^3
[13]; analog 10 μM, NMB alone 21.0 ± 1.8
  [3H]IP with NMB (10 nM): 7.5 ± 1.0 dpm × 10^3
